Results reported in PubChem BioAssay (NCI).
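All cell lines were grown in 96-well plates and treated with compound for 48 hours. GI50 = concentration required for 50% inhibition of growth. Definition used: TGI = concentration required for complete inhibition of growth.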

How the values were obtained:
Test in all cases: NCI-60 cell line screen, 48 h
KM12 colon = system: KM12 colon
EKVX NSCLC = system: EKVX NSCLC
SK-OV-3 ovarian = system: SK-OV-3 ovarian
OVCAR-8 ovarian = system: OVCAR-8 ovarian
SF-539 CNS = system: SF-539 CNS
SNB-19 CNS = system: SNB-19 CNS
DU-145 prostate = system: DU-145 prostate
COLO 205 colon = system: COLO 205 colon
UACC-257 melanoma = system: UACC-257 melanoma
HCT-15 colon = system: HCT-15 colon
SF-268 CNS = system: SF-268 CNS
PC-3 prostate = system: PC-3 prostate
MCF7 breast = system: MCF7 breast
HOP-62 NSCLC = system: HOP-62 NSCLC
HL-60(TB) leukemia = system: HL-60(TB) leukemia
IGROV1 ovarian = system: IGROV1 ovarian
UO-31 renal = system: UO-31 renal
SK-MEL-5 melanoma = system: SK-MEL-5 melanoma
T-47D breast = system: T-47D breast
NCI-H23 lung = system: NCI-H23 lung
MDA-MB-231 breast = system: MDA-MB-231 breast
M14 melanoma = system: M14 melanoma
LOX IMVI melanoma = system: LOX IMVI melanoma
MOLT-4 leukemia = system: MOLT-4 leukemia
SNB-75 CNS = system: SNB-75 CNS
SK-MEL-2 melanoma = system: SK-MEL-2 melanoma
SN12C renal = system: SN12C renal
CCRF-CEM leukemia = system: CCRF-CEM leukemia
MDA-MB-468 breast = system: MDA-MB-468 breast
SW-620 colon = system: SW-620 colon
U251 CNS = system: U251 CNS
A549 NSCLC = system: A549 NSCLC
OVCAR-3 ovarian = system: OVCAR-3 ovarian
HS 578T breast = system: HS 578T breast
NCI-H460 lung = system: NCI-H460 lung
TK-10 renal = system: TK-10 renal
CAKI-1 renal = system: CAKI-1 renal
NCI-H522 lung = system: NCI-H522 lung
RPMI-8226 leukemia = system: RPMI-8226 leukemia
MALME-3M melanoma = system: MALME-3M melanoma
A498 renal = system: A498 renal
786-0 renal = system: 786-0 renal
HOP-92 NSCLC = system: HOP-92 NSCLC
OVCAR-5 ovarian = system: OVCAR-5 ovarian
HCC-2998 colon = system: HCC-2998 colon
BT-549 breast = system: BT-549 breast
HCT-116 colon = system: HCT-116 colon
UACC-62 melanoma = system: UACC-62 melanoma
K-562 leukemia = system: K-562 leukemia
NCI-H226 lung = system: NCI-H226 lung
MDA-MB-435 = system: MDA-MB-435
OVCAR-4 ovarian = system: OVCAR-4 ovarian
HT29 colon = system: HT29 colon
SR leukemia = system: SR leukemia
SF-295 CNS = system: SF-295 CNS
RXF 393 renal = system: RXF 393 renal
ACHN renal = system: ACHN renal
SK-MEL-28 melanoma = system: SK-MEL-28 melanoma

Question: What does the source list for `O=C(c1ccc(Cl)cc1)C1[C@H](c2ccccc2Br)[C@@H](c2ccccc2)NC12C(=O)Nc1ccccc12` (stereo partly specified)?
Answer: GI50 (KM12 colon): 7.5 µM; TGI (KM12 colon): 25.2 µM; GI50 (EKVX NSCLC): 6.22 µM; TGI (EKVX NSCLC): > 56 µM; GI50 (SK-OV-3 ovarian): 3.87 µM; TGI (SK-OV-3 ovarian): 37 µM; GI50 (OVCAR-8 ovarian): 6.72 µM; TGI (OVCAR-8 ovarian): 19.9 µM; GI50 (SF-539 CNS): 7.14 µM; TGI (SF-539 CNS): 15.7 µM; GI50 (SNB-19 CNS): 10.8 µM; TGI (SNB-19 CNS): > 56 µM; GI50 (DU-145 prostate): 2.66 µM; TGI (DU-145 prostate): 16.4 µM; GI50 (COLO 205 colon): 7.71 µM; TGI (COLO 205 colon): 15.6 µM; GI50 (UACC-257 melanoma): 4.84 µM; TGI (UACC-257 melanoma): 20.7 µM; GI50 (HCT-15 colon): 4.03 µM; TGI (HCT-15 colon): > 56 µM; GI50 (SF-268 CNS): 2.92 µM; TGI (SF-268 CNS): 40.2 µM; GI50 (PC-3 prostate): 2.03 µM; TGI (PC-3 prostate): 18.6 µM; GI50 (MCF7 breast): 1.81 µM; TGI (MCF7 breast): > 56 µM; GI50 (HOP-62 NSCLC): 6.54 µM; TGI (HOP-62 NSCLC): 16.5 µM; GI50 (HL-60(TB) leukemia): 1.92 µM; TGI (HL-60(TB) leukemia): 19.1 µM; GI50 (IGROV1 ovarian): 5.92 µM; TGI (IGROV1 ovarian): 26.1 µM; GI50 (UO-31 renal): 2.49 µM; TGI (UO-31 renal): 29.3 µM; GI50 (SK-MEL-5 melanoma): 2.42 µM; TGI (SK-MEL-5 melanoma): 9.07 µM; GI50 (T-47D breast): 3.46 µM; TGI (T-47D breast): 49 µM; GI50 (NCI-H23 lung): 5.78 µM; TGI (NCI-H23 lung): 17.3 µM; GI50 (MDA-MB-231 breast): 1.72 µM; TGI (MDA-MB-231 breast): 7.13 µM; GI50 (M14 melanoma): 4.86 µM; TGI (M14 melanoma): 13.7 µM; GI50 (LOX IMVI melanoma): 1.99 µM; TGI (LOX IMVI melanoma): 8.86 µM; GI50 (MOLT-4 leukemia): 2.06 µM; TGI (MOLT-4 leukemia): 18.5 µM; GI50 (SNB-75 CNS): 0.765 µM; TGI (SNB-75 CNS): 27.9 µM; GI50 (SK-MEL-2 melanoma): 4.44 µM; TGI (SK-MEL-2 melanoma): 11.9 µM; GI50 (SN12C renal): 2.74 µM; TGI (SN12C renal): 10 µM; GI50 (CCRF-CEM leukemia): 3.27 µM; TGI (CCRF-CEM leukemia): 29.8 µM; GI50 (MDA-MB-468 breast): 1.11 µM; TGI (MDA-MB-468 breast): 3.33 µM; GI50 (SW-620 colon): 3.43 µM; TGI (SW-620 colon): 33.9 µM; GI50 (U251 CNS): 3.16 µM; TGI (U251 CNS): 16 µM; GI50 (A549 NSCLC): 2.71 µM; TGI (A549 NSCLC): 25 µM; GI50 (OVCAR-3 ovarian): 2.39 µM; TGI (OVCAR-3 ovarian): 14 µM; GI50 (HS 578T breast): 2.51 µM; TGI (HS 578T breast): 15.6 µM; GI50 (NCI-H460 lung): 2.3 µM; TGI (NCI-H460 lung): 11.2 µM; GI50 (TK-10 renal): 9.48 µM; TGI (TK-10 renal): 40.7 µM; GI50 (CAKI-1 renal): 1.67 µM; TGI (CAKI-1 renal): > 56 µM; GI50 (NCI-H522 lung): 1.3 µM; TGI (NCI-H522 lung): 5.72 µM; GI50 (RPMI-8226 leukemia): 5.43 µM; TGI (RPMI-8226 leukemia): 32.6 µM; GI50 (MALME-3M melanoma): 6.46 µM; TGI (MALME-3M melanoma): 14.5 µM; GI50 (A498 renal): 8.75 µM; TGI (A498 renal): 21.6 µM; GI50 (786-0 renal): 7.3 µM; TGI (786-0 renal): 21.9 µM; GI50 (HOP-92 NSCLC): 2.06 µM; TGI (HOP-92 NSCLC): 14.5 µM; GI50 (OVCAR-5 ovarian): 6.34 µM; TGI (OVCAR-5 ovarian): 29.7 µM; GI50 (HCC-2998 colon): 6.32 µM; TGI (HCC-2998 colon): 17.8 µM; GI50 (BT-549 breast): 2.4 µM; TGI (BT-549 breast): 10.5 µM; GI50 (HCT-116 colon): 2.15 µM; TGI (HCT-116 colon): 9.06 µM; GI50 (UACC-62 melanoma): 2.11 µM; TGI (UACC-62 melanoma): 8.87 µM; GI50 (K-562 leukemia): 2.04 µM; TGI (K-562 leukemia): 28.3 µM; GI50 (NCI-H226 lung): 3.85 µM; TGI (NCI-H226 lung): 13.6 µM; GI50 (MDA-MB-435): 2.58 µM; TGI (MDA-MB-435): 10.8 µM; GI50 (OVCAR-4 ovarian): 7.11 µM; TGI (OVCAR-4 ovarian): > 56 µM; GI50 (HT29 colon): 2.46 µM; TGI (HT29 colon): 9.82 µM; GI50 (SR leukemia): 2 µM; TGI (SR leukemia): 14 µM; GI50 (SF-295 CNS): 3.79 µM; TGI (SF-295 CNS): 15.2 µM; GI50 (RXF 393 renal): 1.77 µM; TGI (RXF 393 renal): 7.57 µM; GI50 (ACHN renal): 6.01 µM; TGI (ACHN renal): 44.4 µM; GI50 (SK-MEL-28 melanoma): 7.44 µM; TGI (SK-MEL-28 melanoma): 16.3 µM
